In brackets after ≈: the same amount, converted by molar mass.
Key:
[1] = molecular target: T1, Serine/threonine-protein kinase/endoribonuclease IRE1 (Homo sapiens, UniProt O75460); experiment: Inhibition of His-tagged IRE1alpha (G547 to L977 residues) (unknown origin) expressed in Sf9 cells preincubated with anti-His Europium labeled antibody for 1 hr prior to compound addition followed by tracer 236 addition and measured after 1 hr by TR-FRET assay
[2] = molecular target: T1, Serine/threonine-protein kinase/endoribonuclease IRE1; experiment: Inhibition of IRE1alpha RNase activity (unknown origin) using XBP1 as substrate preincubated for 1 hr followed by thapsigargin stimulation for 5 hrs by One-Glo luciferase reagent based luminescence assay
[3] = molecular target: T1, Serine/threonine-protein kinase/endoribonuclease IRE1; experiment: Inhibition of IRE1alpha RNase activity (Q470 to L977 residues) (unknown origin) expressed in Sf9 cells using mini-XBP-1 stem-loop RNA as substrate measured every 2 mins interval for 50 mins by FRET assay
[4] = Apparent permeability across apical to basolateral side in MDCK cells at 10 uM incubated for 3 hrs by LC-MS/MS method; assay type: ADME, cell-based, Canis lupus familiaris; conditions: dog
[5] = Half-life in CD-1 mouse at 10 mg/kg, po or 1 mg/kg, iv measured upto 24 hrs by LC-MS/MS analysis; assay type: ADME, organism-based; conditions: in vivo
[6] = Kinetic solubility of compound at pH 7.4; assay type: physicochemical; conditions: buffer, read-out: Kinetic_solubility
[7] = Bioavailability in CD-1 mouse at 10 mg/kg, po or 1 mg/kg, iv measured upto 24 hrs by LC-MS/MS analysis; assay type: ADME, organism-based; conditions: in vivo
[8] = Plasma protein binding in mouse incubated for 4 hrs by LC-MS/MS based rapid equilibrium dialysis method; assay type: ADME, cell-free; conditions: read-out: PPB (converted)
[9] = Volume of distribution at steady state in CD-1 mouse at 10 mg/kg, po or 1 mg/kg, iv measured upto 24 hrs by LC-MS/MS analysis; assay type: ADME, organism-based; conditions: in vivo

T1 sequence (O75460 whole entry, the tested form may be a part): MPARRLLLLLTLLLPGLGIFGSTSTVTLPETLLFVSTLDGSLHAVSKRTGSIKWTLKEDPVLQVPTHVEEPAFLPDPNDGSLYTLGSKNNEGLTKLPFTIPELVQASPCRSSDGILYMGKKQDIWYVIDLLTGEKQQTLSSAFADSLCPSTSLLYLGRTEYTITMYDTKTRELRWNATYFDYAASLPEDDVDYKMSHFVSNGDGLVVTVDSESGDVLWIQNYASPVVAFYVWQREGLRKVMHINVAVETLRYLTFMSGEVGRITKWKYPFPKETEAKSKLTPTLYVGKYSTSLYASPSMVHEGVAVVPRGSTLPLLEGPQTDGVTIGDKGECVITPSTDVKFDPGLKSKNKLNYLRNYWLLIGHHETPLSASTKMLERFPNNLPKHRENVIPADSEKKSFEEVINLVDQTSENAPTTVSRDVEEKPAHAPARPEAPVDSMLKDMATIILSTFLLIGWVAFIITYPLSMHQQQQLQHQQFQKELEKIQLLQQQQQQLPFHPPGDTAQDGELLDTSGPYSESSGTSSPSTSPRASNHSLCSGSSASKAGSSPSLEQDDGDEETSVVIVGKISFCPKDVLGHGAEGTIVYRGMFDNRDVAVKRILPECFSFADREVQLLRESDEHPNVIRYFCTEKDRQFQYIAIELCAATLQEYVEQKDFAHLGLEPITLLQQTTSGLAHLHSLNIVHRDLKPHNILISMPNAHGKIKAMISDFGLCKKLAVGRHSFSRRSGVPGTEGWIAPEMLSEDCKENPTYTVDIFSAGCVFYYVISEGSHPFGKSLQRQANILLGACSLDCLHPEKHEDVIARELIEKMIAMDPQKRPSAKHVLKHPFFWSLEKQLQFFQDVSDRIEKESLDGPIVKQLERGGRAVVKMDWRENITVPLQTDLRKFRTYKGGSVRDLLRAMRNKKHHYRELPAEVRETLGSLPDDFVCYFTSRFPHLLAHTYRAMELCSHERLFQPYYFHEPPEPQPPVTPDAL

IC50 [1] [nM] | IC50 [2] [nM] | IC50 [3] [nM] | Papp A→B at 3 h, 10 µM [4] [×10⁻⁶ cm/s] | half-life [5] [h] | solubility kinetic [6] [µM] | bioavailability [7] [%] | fraction unbound at 4 h [8] | Vdss [9] [L/kg] | Compound
3.1 | 47 | 4.5 | 1.4 | – | – | – | – | – | O=S(=O)(Cc1ccccc1)Nc1c(F)cc(Oc2ncccc2-c2ccnc(N[C@H]3CCCNC3)n2)c(F)c1F
0.66 | 42 | 3.3 | – | – | – | – | – | – | Cc1ccc2c(Oc3ncccc3-c3ccnc(N[C@H]4CCCNC4)n3)c(C)ccc2c1NS(=O)(=O)CCC(F)(F)F
0.98 | 88 | 2.9 | 2.1 | – | – | – | – | – | O=S(=O)(Cc1ccccc1)Nc1ccc(Oc2ncccc2-c2ccnc(N[C@H]3CCCNC3)n2)c(F)c1F
0.29 | 37 | 29 | 1.1 | – | – | – | – | – | Cc1c(Oc2ncccc2-c2ccnc(N[C@H]3CCCNC3)n2)cc(F)c(NS(=O)(=O)Cc2ccccc2)c1F
0.59 | 22 | 7.4 | 7.3 | 1.56 | 46 (≈ 27.7 µg/mL) | 109 | 0.009 | 1.04 | C[C@@]1(F)CNC[C@@H](Nc2nccc(-c3cccnc3Oc3cc(F)c(NS(=O)(=O)Cc4ccccc4)c(F)c3F)n2)C1
0.29 | 44 | 4.5 | 2.8 | – | – | – | – | – | Cc1cc(Oc2ncccc2-c2ccnc(N[C@H]3CCCNC3)n2)c(F)c(F)c1NS(=O)(=O)Cc1ccccc1
29 | 4400 | 170 | – | – | – | – | – | – | Cc1cc(NS(=O)(=O)Cc2ccccc2)ccc1Oc1ncccc1-c1ccnc(N[C@H]2CCCNC2)n1

Further lines, the compound ahead of its results:

Compound | IC50 [1] [nM] | IC50 [2] [nM] | IC50 [3] [nM] | Papp A→B at 3 h, 10 µM [4] [×10⁻⁶ cm/s] | half-life [5] [h] | solubility kinetic [6] [µM] | bioavailability [7] [%] | fraction unbound at 4 h [8] | Vdss [9] [L/kg]
Cc1ccc2c(NS(=O)(=O)c3ccccc3Cl)cccc2c1Oc1ncccc1-c1ccnc(N[C@H]2CCCOC2)n1 | 42 | 26000 | > 10000 | – | – | – | – | – | –
CCCS(=O)(=O)Nc1cccc2c(Oc3ncccc3-c3ccnc(N[C@H]4CCCNC4)n3)c(C)ccc12 | 4.7 | 140 | 6.3 | – | – | – | – | – | –
Cc1cc(NS(=O)(=O)c2ccccc2Cl)c2ccccc2c1Oc1ncccc1-c1ccnc(N[C@H]2CC[C@H](N)CC2)n1 | 0.85 | – | – | – | – | – | – | – | –
Cc1ccc(CNC(=O)N2CCC[C@]3(CCN(Cc4ccc(Cl)c(Cl)c4)C3)C2)cc1 | 660 | 5900 | 46 | – | – | – | – | – | –
Cc1ccc2c(NS(=O)(=O)c3ccccc3Cl)cccc2c1Oc1ncccc1-c1ccnc(Nc2cn[nH]c2)n1 | > 1000 | > 50000 | > 10000 | – | – | – | – | – | –
Cc1ccc2c(NS(=O)(=O)CCC3CC3)cccc2c1Oc1ncccc1-c1ccnc(N[C@H]2CCCNC2)n1 | 1.8 | 300 | 19 | – | – | – | – | – | –
Cc1ccc2c(NS(=O)(=O)CCC(F)(F)F)cccc2c1Oc1ncccc1-c1ccnc(N[C@H]2CCCNC2)n1 | 1.1 | 84 | 8.7 | – | – | – | – | – | –
Cc1ccc2c(NS(=O)(=O)C3CCCC3)cccc2c1Oc1ncccc1-c1ccnc(N[C@H]2CCCNC2)n1 | 3.3 | 200 | 13 | – | – | – | – | – | –
Cc1ccc2c(NS(=O)(=O)c3ccccc3Cl)cccc2c1Oc1ncccc1-c1ccnc(N[C@@H]2CCCNC2)n1 | 46 | 2300 | 420 | – | – | – | – | – | –

From ChEMBL document CHEMBL5512667, “Discovery of Potent, Selective, and Orally Available IRE1α Inhibitors Demonstrating Comparable PD Modulation to IRE1 Knockdown in a Multiple Myeloma Model” (J Med Chem, 2024)
